How the values were obtained:
CYP1A2 [1] = molecular target: T1, CYP1A2 (Homo sapiens, UniProt P05177); assay: CYP1A2 inhibition, caffeine 3-N-demethylation in pooled human liver microsomes; type: in vitro ADME; details: for type of inhibition: Lineweaver–Burk; for Ki: caffeine 3-N-demethylation
T1 construct: purchased Corning (Woburn, USA); host or cells: baculovirus-infected insect cells
T1 sequence (P05177 1-516): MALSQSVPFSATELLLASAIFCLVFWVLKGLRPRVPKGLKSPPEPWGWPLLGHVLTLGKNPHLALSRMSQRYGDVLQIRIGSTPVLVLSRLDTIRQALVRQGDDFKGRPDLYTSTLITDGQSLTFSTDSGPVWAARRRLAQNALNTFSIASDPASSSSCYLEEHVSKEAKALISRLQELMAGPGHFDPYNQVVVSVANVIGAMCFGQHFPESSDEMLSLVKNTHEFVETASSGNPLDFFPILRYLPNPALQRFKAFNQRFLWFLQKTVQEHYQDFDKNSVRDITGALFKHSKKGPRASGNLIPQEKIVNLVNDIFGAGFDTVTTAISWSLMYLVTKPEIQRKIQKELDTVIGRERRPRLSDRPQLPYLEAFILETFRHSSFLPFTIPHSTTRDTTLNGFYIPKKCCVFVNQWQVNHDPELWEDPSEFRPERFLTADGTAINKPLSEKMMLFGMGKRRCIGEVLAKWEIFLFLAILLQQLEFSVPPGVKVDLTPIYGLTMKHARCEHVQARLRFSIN
Experimental: (§1) The following probe reactions were applied, according to the methods previously described: caffeine 3-N-demethylation for CYP1A2 (caffeine 200, 400 and 800 µM), diclofenac 4′-hydroxylation for CYP2C9 (diclofenac 5, 10, 25 µM), perazine N-demethylation for CYP2C19 (perazine 50, 100, 200 µM), bufuralol 1′-hydroxylation for CYP2D6 (bufuralol 10, 25, 50 µM), and testosterone 6β-hydroxylation for CYP3A4 (50, 100 and 200 µM). Incubation systems for CYP2C9, 2C19 and 3A4 contained: 50 mM TRIS/KCL buffer (pH = 7.4), NADPH generating system (1 mM NADP, 5 mM glucose 6-phosphate, 1.7 U/ml glucose 6-phosphate dehydrogenase, 1 mM EDTA and 3 mM MgCl2). Incubation mixture for CYP1A2 included: 0.15 M phosphate buffer (pH = 7.4) and 1 mM NADPH, and for CYP2D6: 0.1 M TRIS/KCL buffer (pH = 7.4), NADPH generating system (1.3 mM NADP, 3.3 mM glucose 6-phosphate, 1 U/ml glucose 6-phosphate dehydrogenase and 3.3 mM MgCl2). The appropriate concentrations of human liver microsomes (0.5 mg/ml for each reaction) or supersomes (50 pmol CYP/ml), various concentrations of a probe substrate in the absence or presence of neuroleptic (concentrations: 0.1, 0.5, 1, 5, 10 µM) were added, The final volume of the reaction mixture was 0.5 ml. The incubation time for supersomes was 30 min (for each reaction) and for liver microsomes: 30 min (diclofenac 4′-hydroxylation and bufuralol 1′-hydroxylation), 20 min (perazine N-demethylation and testosterone 6β-hydroxylation) or 50 min (caffeine 3-N-demethylation). After the reactions had been stopped, the concentrations of specific substrates and their metabolites formed in liver microsomes or supersomes were assessed by the HPLC method with UV detection (or fluorimetric detection for CYP2D6), as described previously.
(§2) Kinetic parameters (Km, Vmax, Ki) describing the course of CYP-specific reactions in liver microsomes or supersomes were obtained using the Michaelis–Menten approach and a non-linear regression analysis (Program Sigma Plot 12.3 Enzyme Kinetics).

CYP1A2 [2] = molecular target: T1, CYP1A2; assay: CYP1A2 inhibition, caffeine 3-N-demethylation in cDNA-expressed CYP1A2 (supersomes); type: in vitro ADME; details: for type of inhibition: Lineweaver–Burk; for Ki: caffeine 3-N-demethylation
Experimental: as §1, §2

CYP2C9 [3] = molecular target: T2, CYP2C9 (Homo sapiens, UniProt P11712); assay: CYP2C9 inhibition, diclofenac 4′-hydroxylation in pooled human liver microsomes; type: in vitro ADME; details: for type of inhibition: Lineweaver–Burk
T2 construct: purchased Corning (Woburn, USA); host or cells: baculovirus-infected insect cells
T2 sequence (P11712 whole entry): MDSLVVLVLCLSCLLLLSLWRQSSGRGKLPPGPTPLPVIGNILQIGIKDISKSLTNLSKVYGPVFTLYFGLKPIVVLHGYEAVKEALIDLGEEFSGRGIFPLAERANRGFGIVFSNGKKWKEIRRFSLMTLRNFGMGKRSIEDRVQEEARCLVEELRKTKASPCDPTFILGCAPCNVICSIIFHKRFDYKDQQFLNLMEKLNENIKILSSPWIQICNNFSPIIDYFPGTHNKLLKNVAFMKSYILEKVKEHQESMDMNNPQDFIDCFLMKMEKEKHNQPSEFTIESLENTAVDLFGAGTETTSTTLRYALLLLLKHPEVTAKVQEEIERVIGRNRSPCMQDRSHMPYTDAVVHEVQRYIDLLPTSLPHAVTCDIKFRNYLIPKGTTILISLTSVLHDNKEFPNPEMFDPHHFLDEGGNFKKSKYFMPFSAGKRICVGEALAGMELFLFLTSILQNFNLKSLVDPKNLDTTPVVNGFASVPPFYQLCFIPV
Experimental: as §1, §2

CYP2C9 [4] = molecular target: T2, CYP2C9; assay: CYP2C9 inhibition, diclofenac 4′-hydroxylation in cDNA-expressed CYP2C9 (supersomes); type: in vitro ADME; details: for type of inhibition: Lineweaver–Burk
Experimental: as §1, §2

CYP2C19 [5] = molecular target: T3, CYP2C19 (Homo sapiens, UniProt P33261); assay: CYP2C19 inhibition, perazine N-demethylation in cDNA-expressed CYP2C19 (supersomes); type: in vitro ADME; details: for type of inhibition: Lineweaver–Burk; for Ki: perazine N-demethylation
T3 sequence (P33261 whole entry): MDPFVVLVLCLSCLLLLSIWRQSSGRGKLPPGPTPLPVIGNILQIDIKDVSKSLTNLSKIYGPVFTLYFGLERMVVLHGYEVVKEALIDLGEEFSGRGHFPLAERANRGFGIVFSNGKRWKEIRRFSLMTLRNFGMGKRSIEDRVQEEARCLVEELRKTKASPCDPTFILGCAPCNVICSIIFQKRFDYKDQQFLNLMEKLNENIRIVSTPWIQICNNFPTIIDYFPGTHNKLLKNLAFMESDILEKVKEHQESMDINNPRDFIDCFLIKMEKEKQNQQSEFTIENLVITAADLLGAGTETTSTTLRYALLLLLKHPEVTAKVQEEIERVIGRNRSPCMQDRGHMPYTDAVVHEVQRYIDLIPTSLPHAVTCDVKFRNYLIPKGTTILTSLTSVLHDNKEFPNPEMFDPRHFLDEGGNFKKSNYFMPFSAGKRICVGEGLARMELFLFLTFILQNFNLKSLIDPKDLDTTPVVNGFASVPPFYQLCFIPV
Experimental: as §1, §2

CYP2D6 [6] = molecular target: T4, CYP2D6 (Homo sapiens, UniProt P10635); assay: CYP2D6 inhibition, bufuralol 1′-hydroxylation in cDNA-expressed CYP2D6 (supersomes); type: in vitro ADME; details: for type of inhibition: Lineweaver–Burk; for Ki: bufuralol 1′-hydroxylation
T4 sequence (P10635 whole entry): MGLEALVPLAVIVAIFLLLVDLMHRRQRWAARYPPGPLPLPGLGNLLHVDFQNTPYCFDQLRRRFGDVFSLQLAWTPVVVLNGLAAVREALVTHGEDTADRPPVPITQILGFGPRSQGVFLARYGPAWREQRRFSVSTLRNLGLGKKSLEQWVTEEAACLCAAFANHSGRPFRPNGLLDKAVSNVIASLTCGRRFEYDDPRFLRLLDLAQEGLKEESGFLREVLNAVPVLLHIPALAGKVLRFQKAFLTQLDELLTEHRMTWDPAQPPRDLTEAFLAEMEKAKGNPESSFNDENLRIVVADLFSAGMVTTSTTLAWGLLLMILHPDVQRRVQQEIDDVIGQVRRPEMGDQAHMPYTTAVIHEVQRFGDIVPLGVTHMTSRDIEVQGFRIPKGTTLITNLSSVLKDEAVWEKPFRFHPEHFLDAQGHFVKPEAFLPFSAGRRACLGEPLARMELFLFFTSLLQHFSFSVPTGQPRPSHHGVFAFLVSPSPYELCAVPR
Experimental: as §1, §2

CYP3A4 [7] = molecular target: T5, CYP3A4 (Homo sapiens, UniProt P08684); assay: CYP3A4 inhibition, testosterone 6β-hydroxylation in pooled human liver microsomes
T5 sequence (P08684 whole entry): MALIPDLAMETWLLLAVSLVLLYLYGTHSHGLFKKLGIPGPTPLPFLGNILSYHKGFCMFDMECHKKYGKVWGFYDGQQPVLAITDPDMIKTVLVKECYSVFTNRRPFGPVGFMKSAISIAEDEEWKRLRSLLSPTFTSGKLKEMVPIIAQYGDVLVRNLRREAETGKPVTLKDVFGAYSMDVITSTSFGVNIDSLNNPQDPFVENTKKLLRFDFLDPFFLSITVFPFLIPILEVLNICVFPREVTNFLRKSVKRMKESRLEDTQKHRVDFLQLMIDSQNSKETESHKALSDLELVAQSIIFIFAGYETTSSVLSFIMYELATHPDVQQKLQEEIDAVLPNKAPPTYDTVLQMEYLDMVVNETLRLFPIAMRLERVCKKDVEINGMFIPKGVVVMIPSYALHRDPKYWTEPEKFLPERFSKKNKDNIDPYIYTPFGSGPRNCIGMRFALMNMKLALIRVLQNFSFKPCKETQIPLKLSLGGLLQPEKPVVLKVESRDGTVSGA
Experimental: as §1, §2

CYP3A4 [8] = molecular target: T5, CYP3A4; assay: CYP3A4 inhibition, testosterone 6β-hydroxylation in cDNA-expressed CYP3A4 (supersomes)
Experimental: as §1, §2

[9] = patients; cited from earlier work
[10] = lipophilicity; cited from earlier work
CYP2C19 [11] = molecular target: T3, CYP2C19; assay: CYP2C19 inhibition, perazine N-demethylation in pooled human liver microsomes; type: in vitro ADME; set-up: a Human liver microsomes; tissue Corning (Woburn, USA); host or cells: pooled human liver microsomes; details: for type of inhibition: Lineweaver–Burk; for Ki: perazine N-demethylation
Experimental: as §1, §2

CYP2D6 [12] = molecular target: T4, CYP2D6; assay: CYP2D6 inhibition, bufuralol 1′-hydroxylation in pooled human liver microsomes; type: in vitro ADME; set-up: a Human liver microsomes; tissue Corning (Woburn, USA); host or cells: pooled human liver microsomes; details: for type of inhibition: Lineweaver–Burk; for Ki: bufuralol 1′-hydroxylation
Experimental: as §1, §2

For `COc1cc(C(C)=O)ccc1OCCCN1CCC(c2noc3cc(F)ccc23)CC1` [Iloperidone, iloperidone], the type of inhibition (CYP1A2 [1]) was “Mixed”, the type of inhibition (CYP1A2 [1]; listed as iloperidone) was “mixed” and the Ki (CYP1A2 [1]) was 45 µM. For the same compound, the type of inhibition (CYP1A2 [2]) was “Mixed”, the type of inhibition (CYP1A2 [2]; listed as iloperidone) was “mixed” and the Ki (CYP1A2 [2]) was 31 µM. The Ki at 30 min (CYP2C9 [3]; human, pooled human liver microsomes, pH 7.4, probe diclofenac (4′-hydroxylation), CYP2C9, liver microsomes, diclofenac 4′-hydroxylation) was over 10 µM, the “effect on the activity of CYP2C9” value (CYP2C9 [3]; liver microsomes, neuroleptic 0.1-10 µM) was “did not affect” and the Ki at 30 min (CYP2C9 [4]; human, pH 7.4, probe diclofenac (4′-hydroxylation), CYP2C9, supersomes, diclofenac 4′-hydroxylation) was over 10 µM. The “effect on the activity of CYP2C9” value (CYP2C9 [4]; supersomes, neuroleptic 0.1-10 µM) was “did not affect”, the type of inhibition (CYP2C19 [5]) was “Mixed” and the type of inhibition (CYP2C19 [5]; listed as iloperidone) was “mixed”. For the same compound, the Ki (CYP2C19 [5]) was 32 µM, the type of inhibition (CYP2D6 [6]) was “Competitive” and the type of inhibition (CYP2D6 [6]; listed as iloperidone) was “competitive”. For the same compound, the Ki (CYP2D6 [6]) was 10 µM, the type of inhibition (CYP3A4 [7]) was “noncompetitive” and the type of inhibition (CYP3A4 [7]; human, 20 min, pH 7.4) was “Noncompetitive”. The type of inhibition (CYP3A4 [8]) was “noncompetitive”, the type of inhibition (CYP3A4 [8]; human, 30 min, pH 7.4) was “Noncompetitive” and the therapeutic plasma concentration [9] was “up to 0.2 μM”. For the same compound, the “log P” value [10] was 4.43, the type of inhibition (CYP2C19 [11]) was “Mixed” and the type of inhibition (CYP2C19 [11]; listed as iloperidone) was “mixed”. The Ki (CYP2C19 [11]) was 6.5 µM, the type of inhibition (CYP2D6 [12]) was “Competitive” and the type of inhibition (CYP2D6 [12]; listed as iloperidone) was “competitive”. It also gave a Ki (CYP2D6 [12]) of 2.9 µM.

With `O=C1[C@@H]2[C@H]3CC[C@H](C3)[C@@H]2C(=O)N1C[C@@H]1CCCC[C@H]1CN1CCN(c2nsc3ccccc23)CC1` [Lurasidone, lurasidone] the type of inhibition (CYP1A2 [1]) was “Mixed”, the type of inhibition (CYP1A2 [1]; listed as lurasidone) was “mixed” and the Ki (CYP1A2 [1]) was 12.6 µM. For the same compound, the type of inhibition (CYP1A2 [2]) was “Mixed”, the type of inhibition (CYP1A2 [2]; listed as lurasidone) was “mixed” and the Ki (CYP1A2 [2]) was 15.5 µM. For the same compound, the type of inhibition (CYP2C9 [3]; CYP2C9, liver microsomes) was “Mixed”, the type of inhibition (CYP2C9 [3]; CYP2C9, liver microsomes, listed as lurasidone) was “mixed” and the Ki (CYP2C9 [3]; CYP2C9, liver microsomes, diclofenac 4′-hydroxylation) was 18 µM. The type of inhibition (CYP2C9 [4]; CYP2C9, supersomes) was “Mixed”, the type of inhibition (CYP2C9 [4]; CYP2C9, supersomes, listed as lurasidone) was “mixed” and the Ki (CYP2C9 [4]; CYP2C9, supersomes, diclofenac 4′-hydroxylation) was 3.5 µM. For the same compound, the type of inhibition (CYP2C19 [5]) was “Mixed”, the type of inhibition (CYP2C19 [5]; listed as lurasidone) was “mixed” and the Ki (CYP2C19 [5]) was 18.4 µM. For the same compound, the type of inhibition (CYP2D6 [6]) was “Competitive”, the type of inhibition (CYP2D6 [6]; listed as lurasidone) was “competitive” and the Ki (CYP2D6 [6]) was 85 µM. The Ki (CYP3A4 [7]) was 29.4 µM, the type of inhibition (CYP3A4 [7]) was “competitive” and the type of inhibition (CYP3A4 [7]; human, 20 min, pH 7.4) was “Competitive”. For the same compound, the Ki (CYP3A4 [8]) was 9.1 µM, the type of inhibition (CYP3A4 [8]) was “competitive” and the type of inhibition (CYP3A4 [8]; human, 30 min, pH 7.4) was “Competitive”. For the same compound, the therapeutic plasma concentration [9] was at most 1.2 µM, the “log P” value [10] was 5.6 and the type of inhibition (CYP2C19 [11]) was “Mixed”. For the same compound, the type of inhibition (CYP2C19 [11]; listed as lurasidone) was “mixed”, the Ki (CYP2C19 [11]) was 18 µM and the type of inhibition (CYP2D6 [12]) was “Competitive”. The type of inhibition (CYP2D6 [12]; listed as lurasidone) was “competitive” and the Ki (CYP2D6 [12]) was 37.5 µM.

Source: publication PMC7704495 (Pharmacological Reports, 2020)
